For data set [1], the system named is RBL-2H3. Put plainly: Antidegranulation effect in DNP-HSA induced rat RBL2H3 cells assessed as IgE/Ag complex-induced degranulation preincubated for 30 mins before DNP-HSA challenge for 15 mins by beta-hexosaminidase release based microplate reader method. The class given is functional, cell-based.
In data set [2] the test system is RBL-2H3. The data set can be described thus: Inhibition of TNFalpha mRNA expression in IgE/Ag-stimulated rat RBL2H3 cells incubated in presence of DNP-HSA for 1 hr post compound dosing by RT-PCR. The class given is functional, cell-based.
Data set [3] relates to RBL-2H3. Put plainly: Cytotoxicity against IgE/Ag-stimulated rat RBL2H3 cells at 50 to 200 uM incubated for 23 hrs by Ez-cytox assay. The class given is cell-based. The settings on record: rbl-2h3, 23 h.
Data set [4] relates to Mus musculus. The data set can be described thus: Antiallergic activity in IgE/Ag-induced passive cutaneous anaphylactic ICR mouse model injected with DNP-HSA-Evans blue dye post DNP-IgE challenge at 50 to 100 mg/kg, po 1 hr before antigenic challenge measured after 2 hrs post IgE/Ag challenge. It counts as functional, organism-based.
In data set [5] the test system is RBL-2H3. Put plainly: Inhibition of PI3K-mediated Akt phosphorylation in IgE/Ag-induced rat RBL2H3 cells incubated in presence of DNP-HSA for 1 hr post compound dosing by Western blotting. The class given is cell-based. In general terms: A western blot detects proteins with antibodies after separation by electrophoresis.
In data set [6] the test system is Mus musculus. Put plainly: Antiallergic activity in IgE/Ag-induced passive cutaneous anaphylactic ICR mouse model injected with DNP-HSA-Evans blue dye post DNP-IgE challenge at 50 mg/kg, po 1 hr before antigenic challenge measured after 2 hrs post IgE/Ag challenge. The class given is functional, organism-based. On the set-up: dose 50 mg/kg.

Drawing on ChEMBL document CHEMBL2163191, “Antiallergic activity profile in vitro RBL-2H3 and in vivo passive cutaneous anaphylaxis mouse model of new sila-substituted 1,3,4-oxadiazoles” (J Med Chem, 2012), this text covers Activity and inhibition for three compounds.

Active and inactive are the calls of the source. No cut-off for these calls is given here.

With `C[Si](C)(C)CS(=O)(=O)Cc1nnc(-c2ccc(Cl)cc2)o1`, the Activity result in the data set on RBL-2H3 [1] is “Dose-dependent effect”; in the data set with RBL-2H3 [3], “Non-toxic”. Also, the inhibition entry with RBL-2H3 [2] and in the data set with RBL-2H3 [5] was “Dose-dependent effect” throughout. Further, the outcome in the data set with Mus musculus [4] was Active.
Turning to `CC(C)(C)CS(=O)(=O)Cc1nnc(-c2ccc(Cl)cc2)o1`, the result with RBL-2H3 [1] was inactive.
Consider `CN(C)CCOC(c1ccccc1)c1ccccc1`, for which, in the data set on Mus musculus [6], the result was Active.
